From US11370771B2, “Inhibitors of TRPC6” (Boehringer Ingelheim International GmbH, priority 2018, dated 2022)

Assays:
PASMC = conditions: cited from earlier work
TRPC6 = conditions: lung tissue of IPAH patients; cited from earlier work
human TRPC6 = target: T1, human TRPC6 (Homo sapiens, UniProt Q9Y210); assay: High Throughput Screening Assay Method 1 (FLIPR membrane potential dye, OAG activation, HEK293 cells expressing human TRPC6); assay type: cell-based; conditions: antagonist effect against human TRPC6, 60 μM OAG, read-out: Fluorescence TRPC6 IC50
T1 construct: expressed in transfected cells
T1 sequence (Q9Y210 1-931): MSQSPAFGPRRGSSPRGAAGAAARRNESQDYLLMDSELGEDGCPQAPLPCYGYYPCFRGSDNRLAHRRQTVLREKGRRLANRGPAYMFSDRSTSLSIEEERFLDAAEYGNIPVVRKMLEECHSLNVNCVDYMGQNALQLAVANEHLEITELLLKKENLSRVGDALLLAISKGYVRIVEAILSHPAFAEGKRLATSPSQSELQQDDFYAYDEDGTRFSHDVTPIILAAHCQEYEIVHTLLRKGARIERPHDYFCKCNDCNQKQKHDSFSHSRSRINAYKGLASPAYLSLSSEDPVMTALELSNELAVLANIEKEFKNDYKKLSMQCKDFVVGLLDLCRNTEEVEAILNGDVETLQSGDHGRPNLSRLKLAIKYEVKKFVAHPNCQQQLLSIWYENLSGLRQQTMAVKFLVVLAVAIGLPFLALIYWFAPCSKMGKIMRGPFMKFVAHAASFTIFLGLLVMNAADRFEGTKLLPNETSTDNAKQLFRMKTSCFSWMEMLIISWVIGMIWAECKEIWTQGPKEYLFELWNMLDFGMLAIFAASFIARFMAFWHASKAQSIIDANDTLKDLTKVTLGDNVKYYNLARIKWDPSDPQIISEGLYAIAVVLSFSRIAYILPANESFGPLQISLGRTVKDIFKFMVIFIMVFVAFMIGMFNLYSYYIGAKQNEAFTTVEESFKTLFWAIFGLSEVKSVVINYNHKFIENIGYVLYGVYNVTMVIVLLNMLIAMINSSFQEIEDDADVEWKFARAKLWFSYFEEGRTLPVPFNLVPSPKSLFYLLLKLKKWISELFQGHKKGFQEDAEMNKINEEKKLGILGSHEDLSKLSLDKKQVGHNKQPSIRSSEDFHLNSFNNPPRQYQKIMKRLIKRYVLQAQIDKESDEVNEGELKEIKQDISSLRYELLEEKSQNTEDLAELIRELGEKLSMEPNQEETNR
Description: This screening assay measures TRPC6 (transient receptor potential cation channel, subfamily C, member 6) ion channel activation via addition either of the commercially available DAG ligand analogue OAG (1-oleoyl-2-acetyl-sn-glycerol) or of the TRPC6 agonist 1-[1-(4,5,6,7,8-pentahydrocyclohepta[2,1-d]thiophen-2-ylcarbonyl)-4-piperidyl]-3-hydrobenzimidazol-2-one (GSK1702934A). The assay utilizes a FLIPR membrane potential (FMP) dye from Molecular Devices, which is a voltage sensitive indicator with a fluorescent quencher. Changes in membrane potential as measured by the fluorescent signal increase during membrane depolarization provide a measurement of channel activity.
The commercially available HEK293 cell line expressing human TRPC6 channel (Axxam/PerkinElmer) is scaled up in bulk and frozen in liquid nitrogen. Frozen cell stocks are thawed and re-suspended in culture media as recommended by the manufacturer supplemented with 0.5 mg/ml of geneticin to promote retention of the TRPC6 construct. Cells are plated at a density of 15,000 cells/well in Greiner 384 well poly-D-lysine coated black clear bottom plates, and incubated for 18-20 h at 37° C. and 5% CO2. To initiate the assay, the growth media is removed using a plate washer and 25 ul of a FMP dye mix is added to each well. The 4× stock FMP dye from the manufacturer is diluted 1× with assay buffer (low calcium Tyrode's assay buffer: 130 mM NaCl, 5 mM KCl, 0.15 mM CaCl2), 1 mM MgCl2, 5 mM NaHCO3, 20 mM HEPES pH 7.4) containing 36 μM BAPTA/AM. The cells are incubated at room temperature (19-22° C.) for 30 minutes. For the screening assay, 5 uL of diluted compound stock is added to each well and incubated for 15 minutes at room temperature (19-22° C.). Using the Hamamatsu FDSS6000 or FDSS7000, 10 uL of the synthetic, membrane permeant analog of 1,2 diacylglycerol (DAG), 1-oleoyl-2-acetoyl-n-glycerol (OAG), is added and fluorescent readings taken every second from 50 seconds to 3 minutes. […] Controls and blanks consisted of HEK293 TRPC6 cells that are exposed to OAG. A reference inhibitor added along with the test compound is included as part of the blanks. This inhibitor suppresses the TRPC6 channel activation. These controls set the screening window, and “hits” are defined as those compounds inhibiting the membrane depolarization caused by OAG by at least 50%. IC50 values are determined for compounds that meet these criteria by titrating compound stock at a final starting concentration of 30 μM using a 3-fold serial dilution for 11 points. Curves are generated by fitting each data set to a four-parameter logistic equation using nonlinear regression.

COc1ccccc1Oc1c(NS(=O)(=O)c2ccc(C(C)(C)C)cc2)nc(-c2ncccn2)nc1OCCO [bosentan]
proliferation of PASMC (PASMC): decreases proliferation
expression of TRPC6 (TRPC6): decreases expression of TRPC6

Nc1ccc(N2CCN(C(=O)c3ccc(Oc4ccc5c(c4)OCO5)cc3)CC2)nn1 [Compound 8, 6-{4-[4-(2H-1,3-benzodioxol-5-yloxy)benzoyl]piperazin-1-yl}pyridazin-3-amine]
IC50 (human TRPC6): 1230 nM

Nc1ccc(N2CCN(C(=O)c3ccc(Oc4ccccc4)cc3)CC2)cn1 [Compound 15, 5-[4-(4-phenoxybenzoyl)piperazin-1-yl]pyridin-2-amine]
IC50 (human TRPC6): 422 nM

Nc1ccc(N2CCN(C(=O)c3ccc(Oc4ccccc4)cc3)CC2)nn1 [Compound 24, 6-[4-(4-phenoxybenzoyl)piperazin-1-yl]pyridazin-3-amine]
IC50 (human TRPC6): 199 nM

Nc1ccc(N2CCN(C(=O)c3ccc(Oc4ccc(Cl)cc4)cc3)CC2)nn1 [Compound 11, 6-{4-[4-(4-chlorophenoxy)benzoyl]piperazin-1-yl}pyridazin-3-amine]
IC50 (human TRPC6): 1040 nM

Nc1ccc(N2CCN(C(=O)c3ccc(Oc4ccc(C(F)(F)F)cc4)cc3)CC2)cn1 [Compound 19, 5-(4-{4-[4-(trifluoromethyl)phenoxy]benzoyl}piperazin-1-yl)pyridin-2-amine]
IC50 (human TRPC6): 1330 nM

Nc1ccc(N2CCN(C(=O)c3ccc(Oc4ccc(OC(F)(F)F)cc4)cc3)CC2)nn1 [Compound 21, 6-(4-{4-[4-(trifluoromethoxy)phenoxy]benzoyl}piperazin-1-yl)pyridazin-3-amine]
IC50 (human TRPC6): 191 nM
